Like-named read-outs stand apart in the source and are kept apart here.
Target: Pseudomonas aeruginosa LpxC enzyme (Pseudomonas aeruginosa (strain ATCC 15692 / DSM 22644 / CIP 104116 / JCM 14847 / LMG 12228 / 1C / PRS 101 / PAO1), UniProt P47205)
Test: biochemical
Assay type: biochemical
[1] = inhibitory activity on Pseudomonas aeruginosa LpxC enzyme, class symbols A/B/C, read-out: Enzyme inhibitory activity
[2] = class symbols A/B/C by IC50, Table 3, read-out: Enzyme inhibitory activity (inhibitory activity on Pseudomonas aeruginosa LpxC enzyme)

| IC50 [1] [nM] | IC50 [2] [nM] | Structure (SMILES) |
| --- | --- | --- |
| < 10 |  | CNC(=O)C(C(=O)NO)N(C)C(=O)c1ccc(-c2ccc(CCF)cc2)cc1 (stereo not drawn) [Compound 238, 2-[{[4′-(2-fluoroethyl)biphenyl-4-yl]carbonyl}(methyl)amino]-N-hydroxy-N′-methylpropanediamide] |
| < 10 |  | CCCOc1ccc(-c2ccc(C(=O)N(C)C(C(=O)NC)C(=O)NO)cc2)cn1 (stereo not drawn) [Compound 467, N-hydroxy-N′-methyl-2-(methyl {[4-(6-propoxypyridin-3-yl)phenyl]carbonyl}amino)propanediamide] |
| 10 to 100 |  | CNC(=O)C(C(=O)NO)N(C)C(=O)c1ccc(C#Cc2ccc(CN(C)C)cc2)cc1 (stereo not drawn) [Compound 202, 2-{[4-({4-[(dimethylamino)methyl]phenyl}ethynyl)benzoyl](methyl)amino}-N-hydroxy-N′-methylpropanediamide] |
|  | < 10 | CNC(=O)[C@@](C)(C(=O)NO)N(C)C(=O)c1ccc(C#Cc2cc(C)on2)cc1 [Compound 576, (2S)-N-hydroxy-N′,2-dimethyl-2-[methyl({4-[(5-methyl-1,2-oxazol-3-yl)ethynyl]phenyl}carbonyl)amino]propanediamide] |
| < 10 |  | CNC(=O)C(C(=O)NO)N(C)C(=O)c1ccc(-c2ccc(OCC(F)CN3CCOCC3)cc2)cc1 (stereo not drawn) [Compound 283, 2-[({4′-[2-fluoro-3-(morpholin-4-yl)propoxy]biphenyl-4-yl}carbonyl)(methyl)amino]-N-hydroxy-N′-methylpropanediamide] |
| < 10 |  | CNC(=O)C(C(=O)NO)N(CC(F)F)C(=O)c1ccc(-c2ccccc2)cc1 (stereo not drawn) [Compound 174, 2-[(biphenyl-4-ylcarbonyl)(2,2-difluoroethyl)amino]-N-hydroxy-N′-methylpropanediamide] |
| > 100 |  | CNC(=O)C(C)(NC(=O)c1ccc(-c2ccccc2)cc1)C(=O)NO (stereo not drawn) [Compound 164, 2-[(Biphenyl-4-ylcarbonyl)amino]-N-hydroxy-N′,2-dimethylpropanediamide] |
| < 10 |  | CNC(=O)C(NC(=O)c1ccc(-c2ccc(OCCOCCO)cc2)cc1)C(=O)NO (stereo not drawn) [Compound 14, N-hydroxy-2-[({4′-[2-(2-hydroxyethoxy)ethoxy]biphenyl-4-yl}carbonyl)amino]-N′-methylpropanediamide] |
| > 100 |  | CNC(=O)C(C(=O)NO)N(C)C(=O)c1ccc(-n2cccc2)cc1 (stereo not drawn) [Compound 307, N-hydroxy-N′-methyl-2-(methyl {[4-(1H-pyrrol-1-yl)phenyl]carbonyl}amino)propanediamide] |
| < 10 |  | CNC(=O)C(C(=O)NO)N(C)C(=O)c1ccc(-c2ccc(CCCO)cc2)cc1 (stereo not drawn) [Compound 165, N-hydroxy-2-[{[4′-(3-hydroxypropyl)biphenyl-4-yl]carbonyl}(methyl)amino]-N′-methylpropanediamide] |
| < 10 |  | CNC(=O)[C@@](C)(C(=O)NO)N(C)C(=O)c1ccc(C#Cc2ccc(CS(C)(=O)=O)cc2)cc1 [Compound 422, (2S)-N-hydroxy-N′,2-dimethyl-2-(methyl {[4-({4-[(methylsulfonyl)methyl]phenyl}ethynyl)phenyl]carbonyl}amino)propanediamide] |
| < 10 |  | CNC(=O)C(C(=O)NO)N(C)C(=O)c1ccc(-c2ccc(NC3CCC3)cc2)cc1 (stereo not drawn) [Compound 268, 2-[{[4′-(cyclobutylamino)biphenyl-4-yl]carbonyl}(methyl)amino]-N-hydroxy-N′-methylpropanediamide] |
| > 100 |  | CNC(=O)C(C(=O)NO)N(C)C(=O)c1ccc(-c2cnccn2)cc1 (stereo not drawn) [Compound 309, N-hydroxy-N′-methyl-2-(methyl {[4-(pyrazin-2-yl)phenyl]carbonyl}amino)propanediamide] |
| < 10 |  | CNC(=O)C(C(=O)NO)N(CCF)C(=O)c1ccc(-c2ccccc2)cc1 (stereo not drawn) [Compound 193, 2-[(biphenyl-4-ylcarbonyl)(2-fluoroethyl)amino]-N-hydroxy-N′-methylpropanediamide] |
| 10 to 100 |  | CC(C)NC(=O)C(NC(=O)c1ccc(-c2ccc(OCCO)cc2)cc1)C(=O)NO (stereo not drawn) [Compound 143, N-hydroxy-2-({[4′-(2-hydroxyethoxy)biphenyl-4-yl]carbonyl}amino)-N′-(propan-2-yl)propanediamide] |
| 10 to 100 |  | CNC(=O)C(C(=O)NO)N(C)C(=O)c1ccc(-c2ccccc2C)cc1 (stereo not drawn) [Compound 18, N-hydroxy-N′-methyl-2-{methyl[(2′-methylbiphenyl-4-yl)carbonyl]amino}propanediamide] |
| 10 to 100 |  | CN(C(=O)c1ccc(-c2ccccc2)cc1)C(C(N)=O)C(=O)NO (stereo not drawn) [Compound 186, 2-[(biphenyl-4-ylcarbonyl)(methyl)amino]-N-hydroxypropanediamide] |
| < 10 |  | CNC(=O)C(C(=O)NO)N(C)C(=O)c1ccc(-c2ccc(OCC(C)C)cc2)cc1 (stereo not drawn) [Compound 214, N-hydroxy-N′-methyl-2-(methyl {[4′-(2-methylpropoxy)biphenyl-4-yl]carbonyl}amino)propanediamide] |
|  | < 10 | CNC(=O)[C@@](C)(C(=O)NO)N(C)C(=O)c1ccc(C#Cc2coc(CN3CCOCC3)c2)cc1 [Compound 592, (2S)-N-hydroxy-N′,2-dimethyl-2-[methyl(4-{[5-(morpholin-4-ylmethyl)furan-3-yl]ethynyl}benzoyl)amino]propanediamide] |
| < 10 |  | CNC(=O)C(C(=O)NO)N(C)C(=O)c1ccc(C#Cc2ccc(OCC(O)CO)cc2)cc1 (stereo not drawn) [Compound 320, 2-{[(4-{[4-(2,3-dihydroxypropoxy)phenyl]ethynyl}phenyl)carbonyl](methyl)amino}-N-hydroxy-N′-methylpropanediamide] |
| > 100 |  | CNC(=O)C(C(=O)NO)N(C)C(=O)c1ccc(-c2ccc(NC)cc2)c(NC)c1 (stereo not drawn) [Compound 101, 2-[{[2,4′-bis(methylamino)biphenyl-4-yl]carbonyl}(methyl)amino]-N-hydroxy-N′-methylpropanediamide] |
| 10 to 100 |  | CNC(=O)C(C(=O)NO)N(C)C(=O)c1ccc(-c2nc3ccccc3s2)cc1 (stereo not drawn) [Compound 344, 2-[{[4-(1,3-benzothiazol-2-yl)phenyl]carbonyl}(methyl)amino]-N-hydroxy-N′-methylpropanediamide] |
| < 10 |  | CNC(=O)C(C(=O)NO)N(C)C(=O)c1ccc(-c2ccc(OC(F)F)cc2)cc1 (stereo not drawn) [Compound 51, 2-[{[4′-(difluoromethoxy)biphenyl-4-yl]carbonyl}(methyl)amino]-N-hydroxy-N′-methylpropanediamide] |
| < 10 |  | CNC(=O)C(C(=O)NO)N(C)C(=O)c1ccc(-c2ccc(CCCCN3CCOCC3)cc2)cc1 (stereo not drawn) [Compound 221, N-hydroxy-N′-methyl-2-[methyl({4′-[4-(morpholin-4-yl)butyl]biphenyl-4-yl}carbonyl)amino]propanediamide] |
| 10 to 100 |  | CNC(=O)C(C(=O)NO)N(C)C(=O)c1ccc(-c2ccc(N)cc2)cc1 (stereo not drawn) [Compound 284, 2-{[(4′-aminobiphenyl-4-yl)carbonyl](methyl)amino}-N-hydroxy-N′-methylpropanediamide] |
| < 10 |  | CNC(=O)[C@@](C)(C(=O)NO)N(C)C(=O)c1ccc(C#Cc2cnn(C)c2)cc1 [Compound 433, (2S)-N-hydroxy-N′,2-dimethyl-2-[methyl({4-[(1-methyl-1H-pyrazol-4-yl)ethynyl]phenyl}carbonyl)amino]propanediamide] |
| < 10 |  | CNC(=O)C(C(=O)NO)N(C)C(=O)c1ccc(C#Cc2ccc(NCCO)cc2)cc1 (stereo not drawn) [Compound 183, N-hydroxy-2-{[4-({4-[(2-hydroxyethyl)amino]phenyl}ethynyl)benzoyl](methyl)amino}-N′-methylpropanediamide] |
